In brackets after ≈: the same amount, converted by molar mass. Read-outs that look alike come from different tables or passages of the source. Starred links: 1 amine or outer side, 2 acyl side, 3 side chain; linkers in the order of their positions; H or OH if unused. Positions of bridges follow the written chain, without caps; N, C: chain ends. Residues, ends and D or L forms follow the SMILES beside them. Groups on a side chain read outwards from the residue. *: point of attachment. C20 diacid = O=C(O)CCCCCCCCCCCCCCCCCCC(=O)*; γGlu = O=C(O)[C@H](CCC(=O)[*:2])N[*:1]; AEEA = NCCOCCOCC(=O)O
Assay: Assay (IV) determination of solubility
Format: physicochemical
Outline: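 Solubility was profiled across pH 3.0–8.0 after 18 hours at room temperature: a ~500 nmol/ml aqueous polypeptide solution was diluted 1:1 into 100 mM glycylglycine or bistrispropane buffers. After centrifugation, HPLC gave the dissolved concentration.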

[1] = pH 3, pH 3.0, read-out: Solubility pH 3.0
[2] = pH 4, pH 4.0, 18 hours at room temperature, Table 2, read-out: Solubility pH 4.0
[3] = pH 4, pH 4.0, read-out: Solubility pH 4.0
[4] = pH 5, pH 5.0, read-out: Solubility pH 5.0
[5] = pH 6, pH 6.0, read-out: Solubility pH 6.0
[6] = pH 6.5, pH 6.5, read-out: Solubility pH 6.5
[7] = pH 7, pH 7.0, 18 hours at room temperature, Table 3, read-out: Solubility pH 7.0
[8] = pH 7, pH 7.0, read-out: Solubility pH 7.0
[9] = pH 7.5, pH 7.5, read-out: Solubility pH 7.5
[10] = pH 8, pH 8.0, read-out: Solubility pH 8.0

Row | solubility [1] [µM] | solubility [2] [µM] | solubility [3] [µM] | solubility [4] [µM] | solubility [5] [µM] | solubility [6] [µM] | solubility [7] [µM] | solubility (pH 7, pH 7.0, Table 8, read-out: Solubility pH 7.0) [µM] | solubility (pH 7, pH 7.0, Table 9, read-out: Solubility pH 7.0) [µM] | solubility [8] [µM] | solubility (pH 7.5, pH 7.5, Table 9, read-out: Solubility pH 7.5) [µM] | solubility [9] [µM] | solubility [10] [µM] | Compound
1 | > 200 | > 200 | > 200 | > 200 | > 200 | 163 (≈ 788 µg/mL) | > 200 | > 200 | > 200 | > 200 | > 200 | > 200 | > 200 | CC[C@H](C)[C@H](NC(=O)[C@@H]1CCCN1C(=O)CNC(=O)[C@H](Cc1ccccc1)NC(=O)[C@H](CC(N)=O)NC(=O)[C@H](CCCCNC(=O)COCCOCCNC(=O)COCCOCCNC(=O)CC[C@H](NC(=O)CCCCCCCCCCCCCCCCCCC(=O)O)C(=O)O)NC(=O)[C@H](CO)NC(=O)[C@H](CO)NC(=O)[C@H](CCCNC(=N)N)NC(=O)[C@@H](NC(=O)[C@H](CC(C)C)NC(=O)[C@H](Cc1ccccc1)NC(=O)[C@H](CCC(=O)O)NC(=O)[C@H](C)NC(=O)[C@H](CC(C)C)NC(=O)[C@H](CCCNC(=N)N)NC(=O)[C@H](CCC(N)=O)NC(=O)[C@@H](NC(=O)[C@H](C)NC(=O)[C@@H]1CSSC[C@H](NC(=O)[C@@H](N)CCCCN)C(=O)N[C@@H](CC(N)=O)C(=O)N[C@@H]([C@@H](C)O)C(=O)N[C@@H](C)C(=O)N[C@@H]([C@@H](C)O)C(=O)N1)[C@@H](C)O)C(C)C)C(=O)N[C@@H](CC(C)C)C(=O)N[C@@H](CO)C(=O)N[C@@H](CCCNC(=N)N)C(=O)N[C@H](C(=O)N[C@@H](CC(N)=O)C(=O)N[C@H](C(=O)NCC(=O)N[C@@H](CO)C(=O)N[C@@H](CCCNC(=N)N)C(=O)N[C@H](C(=O)N[C@@H](Cc1ccc(O)cc1)C(N)=O)[C@@H](C)O)C(C)C)[C@@H](C)O [Example 150, N-epsilon21-[2-(2-{2-[2-(2-{2-[(S)-4-Carboxy-4-(19-carboxyheptadecanoylamino)butyrylamino]ethoxy}ethoxy)acetylamino]ethoxy}ethoxy)acetyl]-[Glu14,Arg18,Lys21,Ser28,Arg29,Arg35]-pramlintide] (H-KCNTATCATQRLAEFLVRSSK([AEEA-AEEA-γGlu-C20 diacid])NFGPILSRTNVGSRTY-NH2; disulfide 2-7)
2 | > 200 | > 200 | > 200 | > 200 | > 200 | > 200 | > 200 | – | – | > 200 | – | > 200 | > 200 | CC[C@H](C)[C@H](NC(=O)[C@@H]1CCCN1C(=O)CNC(=O)[C@H](Cc1ccccc1)NC(=O)[C@H](CC(N)=O)NC(=O)[C@H](CCC(N)=O)NC(=O)[C@H](CO)NC(=O)[C@H](CO)NC(=O)[C@H](Cc1c[nH]cn1)NC(=O)[C@H](CCCNC(=N)N)NC(=O)[C@H](CC(C)C)NC(=O)[C@H](Cc1ccccc1)NC(=O)[C@H](CCC(=O)O)NC(=O)[C@H](C)NC(=O)[C@H](CC(C)C)NC(=O)[C@H](CCCNC(=N)N)NC(=O)[C@H](CCC(N)=O)NC(=O)[C@@H](NC(=O)[C@H](C)NC(=O)[C@@H]1CSSC[C@H](NC(=O)[C@H](CCCNC(=N)N)NC(=O)[C@H](CCC(=O)O)NC(=O)[C@H](CCC(=O)O)NC(=O)CC[C@H](NC(=O)CCCCCCCCCCCCCCCCCCC(=O)O)C(=O)O)C(=O)N[C@@H](CC(N)=O)C(=O)N[C@@H]([C@@H](C)O)C(=O)N[C@@H](C)C(=O)N[C@@H]([C@@H](C)O)C(=O)N1)[C@@H](C)O)C(=O)N[C@@H](CC(C)C)C(=O)N1CCC[C@H]1C(=O)N1CCC[C@H]1C(=O)N[C@H](C(=O)N[C@@H](CCC(N)=O)C(=O)N[C@H](C(=O)NCC(=O)N[C@@H](CO)C(=O)N[C@@H](CCC(N)=O)C(=O)N[C@H](C(=O)N1CCC[C@H]1C(N)=O)[C@@H](C)O)C(C)C)[C@@H](C)O [Example 159, N-alpha-[(S)-4-Carboxy-4-(19-carboxynonadecanoylamino)butyryl]-Glu-Glu-[Arg1,Glu14,Arg17,Gln21,Gln31,Gln35,Pro37]-pramlintide] ({C20 diacid-γGlu}-EERCNTATCATQRLAEFLRHSSQNFGPILPPTQVGSQTP-NH2; disulfide 4-9)

From US8722849B2, “Polypeptides” (Novo Nordisk A/S, priority 2011, dated 2014)
